Results published in patent US12077503B2, “Substituted cyclic amides and their use as herbicides” (FMC CORPORATION, priority 2015, dated 2024).

Experiments:
Test in all cases: Test A postemergence
Type in all cases: in vivo
[1] = tested on: pigweed (Amaranthus retroflexus); settings: Amaranthus retroflexus, post-emergence, 240 h, Postemergence; for pest or weed control at 125 g/ha: 125 g ai/ha, visual rating about 10 d after treatment, read-out: Pigweed plant response rating (0 to 100 scale); for pest or weed control at 500 g/ha: 500 g ai/ha, visual injury, 0 to 100 scale (0 no effect, 100 complete control), approx. 10 d, read-out: Plant response rating, Pigweed
In short: (§1)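 Visual injury, scored on a 0–100 scale relative to untreated controls, was recorded about 10 d after application. Treatments were a preemergence soil spray over planted seeds or a postemergence spray on plants at the one- to two-leaf stage, 2 to 10 cm tall, all in loam soil–sand blend in the greenhouse.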

[2] = tested on: wheat (Triticum aestivum); settings: Triticum aestivum, post-emergence, 240 h, Postemergence; for plant injury at 125 g/ha: 125 g ai/ha, visual rating about 10 d after treatment, read-out: Wheat plant response rating (0 to 100 scale); for plant injury at 500 g/ha: 500 g ai/ha, visual injury, 0 to 100 scale (0 no effect, 100 complete control), approx. 10 d, read-out: Plant response rating, Wheat
In short: as §1

[3] = tested on: corn (Zea mays); settings: Zea mays, post-emergence, 240 h, Postemergence; for plant injury at 125 g/ha: 125 g ai/ha, visual rating about 10 d after treatment, read-out: Corn plant response rating (0 to 100 scale); for Corn plant response rating (crop injury, 0 = no effect, 100 = complete kill) at 500 g/ha: 500 g ai/ha, visual injury, 0 to 100 scale (0 no effect, 100 complete control), approx. 10 d
In short: as §1

[4] = tested on: barnyardgrass (Echinochloa crus-galli); settings: Echinochloa crus-galli, post-emergence, 240 h, Postemergence; for pest or weed control at 125 g/ha: 125 g ai/ha, visual rating about 10 d after treatment, read-out: Barnyardgrass plant response rating (0 to 100 scale, 0 no effect, 100 complete control); for pest or weed control at 500 g/ha: 500 g ai/ha, visual injury, 0 to 100 scale (0 no effect, 100 complete control), approx. 10 d, read-out: Plant response rating, Barnyardgrass
In short: as §1

[5] = tested on: Galium (catchweed bedstraw, Galium aparine); settings: Galium, post-emergence, 240 h, Postemergence; for pest or weed control at 125 g/ha: 125 g ai/ha, visual rating about 10 d after treatment, read-out: Galium plant response rating (0 to 100 scale); for pest or weed control at 500 g/ha: 500 g ai/ha, visual injury, 0 to 100 scale (0 no effect, 100 complete control), approx. 10 d, read-out: Plant response rating, Galium
In short: as §1

[6] = tested on: ragweed (common ragweed, Ambrosia elatior); settings: Ambrosia artemisiifolia, post-emergence, 240 h, Postemergence; for pest or weed control at 125 g/ha: 125 g ai/ha, visual rating about 10 d after treatment, read-out: Ragweed plant response rating (0 to 100 scale); for pest or weed control at 500 g/ha: 500 g ai/ha, visual injury, 0 to 100 scale (0 no effect, 100 complete control), approx. 10 d, read-out: Plant response rating, Ragweed
In short: as §1

Row | Compound | pest or weed control at 125 g/ha [1] [%] | pest or weed control at 500 g/ha [1] [%] | plant injury at 125 g/ha [2] [%] | plant injury at 500 g/ha [2] [%] | plant injury at 125 g/ha [3] [%] | Corn plant response rating (crop injury, 0 = no effect, 100 = complete kill) at 500 g/ha [3] [%] | pest or weed control at 125 g/ha [4] [%] | pest or weed control at 500 g/ha [4] [%] | pest or weed control at 125 g/ha [5] [%] | pest or weed control at 500 g/ha [5] [%] | pest or weed control at 125 g/ha [6] [%] | pest or weed control at 500 g/ha [6] [%]
1 | C=CCOc1cccc(C2CN(C)C(=O)C2C(=O)Nc2ccccc2F)c1 (stereo not drawn) [Compound 1329] | 0 | 0 | 0 | 20 | 30 | 50 | 90 | 90 | 30 | 60 | 0 | 0
2 | CN1CC[C@H](c2cccc(C(F)(F)F)c2)[C@@H](C(=O)Nc2cccc(F)c2F)C1=O [Compound 1330] | 0 | 0 | 50 | 70 | 90 | 0 | 90 | 90 | 30 | 30 | 0 | 20
3 | CN1CC[C@H](c2cccc(C(F)(F)F)c2)[C@@H](C(=O)Nc2ccccc2F)C1=O [Compound 1331] | 0 | 0 | 0 | 50 | 20 | 70 | 90 | 90 | 0 | 0 | 0 | 0
4 | CN1C[C@H](c2cc(C(F)(F)F)cs2)[C@@H](C(=O)Nc2cccc(F)c2F)C1=O [Compound 1377] | 20 | 40 | 30 | 60 | 50 | 80 | 90 | 90 | 40 | 60 | 20 | 60
